Assay results: US8129417B2, “Substituted octahydrocyclopenta[C]pyrrol-4-amines as calcium channel blockers” (Abbott Laboratories, priority 2008, dated 2012)

target: human Cav2.2 (Homo sapiens, UniProt Q00975); test: Assessment of calcium channel activity using FLIPR (Ca2+ influx in IMR32 cells); assay type: cell-based; details: 60 minute pre-incubation with compound, 2 μM nifedipine, depolarized with 80 mM KCl
Procedure, shortened: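 IC50 came from sigmoidal non-linear regression of percent inhibition, relative to uninhibited activity, across compound concentrations. Calcium influx was measured by FLIPR in IMR32 cells plated at 1-1.2×10^5 cells/well and cultured 48 h at 37 °C.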

Sequence of human Cav2.2 (Q00975 whole entry): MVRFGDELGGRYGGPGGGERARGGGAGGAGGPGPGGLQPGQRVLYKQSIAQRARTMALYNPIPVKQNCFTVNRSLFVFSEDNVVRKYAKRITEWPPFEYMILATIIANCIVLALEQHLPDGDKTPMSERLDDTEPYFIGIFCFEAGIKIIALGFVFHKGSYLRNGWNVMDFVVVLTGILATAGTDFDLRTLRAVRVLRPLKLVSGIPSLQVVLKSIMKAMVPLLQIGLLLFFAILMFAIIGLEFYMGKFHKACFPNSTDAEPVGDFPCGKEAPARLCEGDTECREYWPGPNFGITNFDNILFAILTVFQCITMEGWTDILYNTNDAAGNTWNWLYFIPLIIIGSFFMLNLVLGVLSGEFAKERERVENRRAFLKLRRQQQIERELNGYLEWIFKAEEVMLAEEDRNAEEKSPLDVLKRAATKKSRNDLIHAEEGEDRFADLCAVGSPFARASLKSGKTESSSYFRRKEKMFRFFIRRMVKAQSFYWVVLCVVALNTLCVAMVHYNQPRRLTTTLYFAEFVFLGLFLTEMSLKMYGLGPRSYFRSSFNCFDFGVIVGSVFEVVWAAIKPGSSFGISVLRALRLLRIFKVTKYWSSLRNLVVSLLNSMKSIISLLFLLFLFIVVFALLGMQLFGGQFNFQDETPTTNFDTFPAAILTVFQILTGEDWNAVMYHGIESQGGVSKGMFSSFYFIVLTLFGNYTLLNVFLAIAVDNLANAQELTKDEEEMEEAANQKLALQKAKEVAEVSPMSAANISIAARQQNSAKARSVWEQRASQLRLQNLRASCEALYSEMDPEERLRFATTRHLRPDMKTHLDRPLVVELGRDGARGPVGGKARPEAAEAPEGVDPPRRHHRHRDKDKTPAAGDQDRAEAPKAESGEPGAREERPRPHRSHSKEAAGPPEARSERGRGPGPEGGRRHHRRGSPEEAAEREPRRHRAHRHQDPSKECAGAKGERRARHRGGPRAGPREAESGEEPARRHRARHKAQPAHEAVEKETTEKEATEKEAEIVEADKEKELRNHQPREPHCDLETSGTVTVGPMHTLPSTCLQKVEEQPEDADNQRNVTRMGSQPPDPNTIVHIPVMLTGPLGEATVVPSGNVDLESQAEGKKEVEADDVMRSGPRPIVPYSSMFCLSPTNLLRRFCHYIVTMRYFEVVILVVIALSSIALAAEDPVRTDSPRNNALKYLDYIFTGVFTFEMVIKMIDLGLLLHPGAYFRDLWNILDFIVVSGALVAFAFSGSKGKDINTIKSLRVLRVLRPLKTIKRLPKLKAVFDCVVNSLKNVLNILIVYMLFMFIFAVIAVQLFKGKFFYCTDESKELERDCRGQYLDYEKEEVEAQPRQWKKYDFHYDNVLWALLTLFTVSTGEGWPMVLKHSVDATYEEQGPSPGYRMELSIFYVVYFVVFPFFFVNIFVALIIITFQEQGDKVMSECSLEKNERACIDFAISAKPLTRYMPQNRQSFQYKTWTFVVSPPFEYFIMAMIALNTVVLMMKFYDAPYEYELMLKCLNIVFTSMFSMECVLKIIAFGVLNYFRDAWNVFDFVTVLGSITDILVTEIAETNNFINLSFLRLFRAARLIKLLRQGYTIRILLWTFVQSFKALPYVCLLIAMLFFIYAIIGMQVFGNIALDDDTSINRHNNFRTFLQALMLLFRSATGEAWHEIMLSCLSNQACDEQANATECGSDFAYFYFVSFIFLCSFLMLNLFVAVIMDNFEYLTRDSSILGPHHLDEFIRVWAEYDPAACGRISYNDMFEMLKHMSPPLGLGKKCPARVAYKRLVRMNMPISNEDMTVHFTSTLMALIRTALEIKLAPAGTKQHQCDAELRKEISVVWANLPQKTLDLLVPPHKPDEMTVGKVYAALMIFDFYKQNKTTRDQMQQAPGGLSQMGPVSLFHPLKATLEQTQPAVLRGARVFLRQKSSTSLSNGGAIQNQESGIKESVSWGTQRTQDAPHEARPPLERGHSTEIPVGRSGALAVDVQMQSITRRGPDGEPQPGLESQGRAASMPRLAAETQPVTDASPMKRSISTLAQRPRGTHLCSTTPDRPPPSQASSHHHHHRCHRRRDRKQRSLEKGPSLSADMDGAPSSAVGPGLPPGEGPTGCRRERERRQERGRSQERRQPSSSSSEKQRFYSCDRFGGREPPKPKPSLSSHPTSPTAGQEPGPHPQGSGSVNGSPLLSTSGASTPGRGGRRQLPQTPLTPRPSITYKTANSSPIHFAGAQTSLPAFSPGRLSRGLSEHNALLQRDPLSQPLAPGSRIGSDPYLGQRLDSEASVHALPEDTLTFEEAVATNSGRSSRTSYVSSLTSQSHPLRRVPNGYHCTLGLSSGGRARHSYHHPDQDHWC
Sequence of human Cav2.2 (P54289 25-946 partner limits assumed): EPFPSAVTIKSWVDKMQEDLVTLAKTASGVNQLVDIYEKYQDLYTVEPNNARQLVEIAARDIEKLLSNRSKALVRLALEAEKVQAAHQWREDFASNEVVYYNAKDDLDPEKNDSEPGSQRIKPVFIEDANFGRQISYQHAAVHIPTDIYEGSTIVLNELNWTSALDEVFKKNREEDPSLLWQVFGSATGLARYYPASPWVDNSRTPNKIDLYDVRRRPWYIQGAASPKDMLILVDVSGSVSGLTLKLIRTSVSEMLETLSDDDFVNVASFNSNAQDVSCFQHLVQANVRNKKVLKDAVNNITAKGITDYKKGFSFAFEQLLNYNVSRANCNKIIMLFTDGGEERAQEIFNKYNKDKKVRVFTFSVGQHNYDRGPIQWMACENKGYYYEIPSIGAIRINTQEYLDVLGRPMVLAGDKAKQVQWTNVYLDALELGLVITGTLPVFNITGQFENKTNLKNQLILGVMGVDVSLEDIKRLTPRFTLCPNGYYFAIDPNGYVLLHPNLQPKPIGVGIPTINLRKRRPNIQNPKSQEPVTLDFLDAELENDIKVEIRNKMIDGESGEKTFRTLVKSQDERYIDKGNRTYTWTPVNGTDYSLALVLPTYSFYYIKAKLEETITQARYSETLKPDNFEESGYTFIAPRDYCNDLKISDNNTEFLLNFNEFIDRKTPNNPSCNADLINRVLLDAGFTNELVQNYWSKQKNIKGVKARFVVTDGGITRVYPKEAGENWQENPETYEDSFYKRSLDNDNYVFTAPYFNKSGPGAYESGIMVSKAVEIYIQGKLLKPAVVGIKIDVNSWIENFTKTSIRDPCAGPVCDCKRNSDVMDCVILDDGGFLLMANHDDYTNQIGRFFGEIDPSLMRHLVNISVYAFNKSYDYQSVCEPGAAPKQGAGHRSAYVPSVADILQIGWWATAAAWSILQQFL
Sequence of human Cav2.2 (P54289 947-1103 partner limits assumed): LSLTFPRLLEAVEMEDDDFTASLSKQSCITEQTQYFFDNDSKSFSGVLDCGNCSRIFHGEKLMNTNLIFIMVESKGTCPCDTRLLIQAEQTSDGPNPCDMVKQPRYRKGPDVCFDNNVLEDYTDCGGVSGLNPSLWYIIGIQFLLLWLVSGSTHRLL
Sequence of human Cav2.2 (P54284 whole entry partner): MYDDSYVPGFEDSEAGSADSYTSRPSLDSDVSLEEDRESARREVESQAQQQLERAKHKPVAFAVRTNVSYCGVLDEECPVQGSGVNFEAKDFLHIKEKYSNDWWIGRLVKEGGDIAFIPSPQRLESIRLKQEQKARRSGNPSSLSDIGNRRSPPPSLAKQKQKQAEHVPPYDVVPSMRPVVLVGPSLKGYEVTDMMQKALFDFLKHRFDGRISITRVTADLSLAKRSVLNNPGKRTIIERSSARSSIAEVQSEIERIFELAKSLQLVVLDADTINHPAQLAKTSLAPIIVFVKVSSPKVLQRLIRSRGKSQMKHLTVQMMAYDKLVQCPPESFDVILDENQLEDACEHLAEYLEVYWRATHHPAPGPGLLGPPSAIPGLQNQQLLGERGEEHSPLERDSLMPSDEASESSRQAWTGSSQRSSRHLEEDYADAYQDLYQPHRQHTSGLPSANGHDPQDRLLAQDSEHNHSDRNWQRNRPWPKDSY

Compound | IC50 [nM]
CC(C)(C)C[C@H](NC1CCCCC1)C(=O)N[C@H]1CC[C@@H]2CN(S(=O)(=O)c3ccc(C(F)(F)F)cc3)C[C@@H]21 [Example 502, N^2-cyclohexyl-4-methyl-N^1-((3aR,4S,6aS)-2-{[4-(trifluoromethyl)phenyl]sulfonyl}octahydrocyclopenta[c]pyrrol-4-yl)-L-leucinamide] | 970
CCC(CC)N[C@@H](CC(C)(C)C)C(=O)N[C@H]1CC[C@@H]2CN(S(=O)(=O)c3ccc(C(F)(F)F)cc3)C[C@@H]21 [Example 503, N^2-(1-ethylpropyl)-4-methyl-N^1-((3aR,4S,6aS)-2-{[4-(trifluoromethyl)phenyl]sulfonyl}octahydrocyclopenta[c]pyrrol-4-yl)-L-leucinamide] | 890
CC(C)(C)C[C@H](NC1CCC1)C(=O)N[C@H]1CC[C@@H]2CN(S(=O)(=O)c3ccc(C(F)(F)F)cc3)C[C@@H]21 [Example 504, N^2-cyclobutyl-4-methyl-N^1-((3aR,4S,6aS)-2-{[4-(trifluoromethyl)phenyl]sulfonyl}octahydrocyclopenta[c]pyrrol-4-yl)-L-leucinamide] | 910
CCC[C@H](NC1CCCCC1)C(=O)N[C@H]1CC[C@@H]2CN(S(=O)(=O)c3ccc(C(F)(F)F)cc3)C[C@@H]21 [Example 507, N^2-cyclohexyl-N^1-((3aR,4S,6aS)-2-{[4-(trifluoromethyl)phenyl]sulfonyl}octahydrocyclopenta[c]pyrrol-4-yl)-L-norvalinamide] | 870
CC(C)(C)C[C@H](NC1CCCC1)C(=O)N[C@H]1CC[C@@H]2CN(C(=O)[C@H](CC(C)(C)C)NC3CCCC3)C[C@@H]21 [Example 508, N^2-cyclopentyl-N^1-[(3aR,4S,6aS)-2-(N-cyclopentyl-4-methyl-L-leucyl)octahydrocyclopenta[c]pyrrol-4-yl]-4-methyl-L-leucinamide] | 8600
CC(C)C[C@@H](C(=O)N[C@@H]1CC[C@H]2CN(Cc3ccccc3)C[C@H]21)N(C)CC(C)(C)C [Example 510, N^1-[(3aS,4R,6aR)-2-benzyloctahydrocyclopenta[c]pyrrol-4-yl]-N^2-methyl-N^2-neopentyl-L-leucinamide] | 1680
CC(C)C[C@@H](C(=O)N[C@@H]1CC[C@H]2CN(Cc3ccccc3)C[C@H]21)N(C)CCC(C)(C)C [Example 511, N^1-[(3aS,4R,6aR)-2-benzyloctahydrocyclopenta[c]pyrrol-4-yl]-N^2-(3,3-dimethylbutyl)-N^2-methyl-L-leucinamide] | 2120
CC(C)C[C@@H](C(=O)N[C@@H]1CC[C@H]2CN(S(=O)(=O)c3cccc(C(F)(F)F)c3)C[C@H]21)N(C)C [Example 512, N^2,N^2-dimethyl-N^1-((3aS,4R,6aR)-2-{[3-(trifluoromethyl)phenyl]sulfonyl}octahydrocyclopenta[c]pyrrol-4-yl)-L-leucinamide] | 470
CC(C)C[C@@H](C(=O)N[C@@H]1CC[C@H]2CN(Cc3ccccc3)C[C@H]21)N(C)Cc1ccc(F)cc1 [Example 513, N^1-[(3aS,4R,6aR)-2-benzyloctahydrocyclopenta[c]pyrrol-4-yl]-N^2-(4-fluorobenzyl)-N^2-methyl-L-leucinamide] | 2150
CC(C)[C@@H](CC(=O)N[C@H]1CC[C@@H]2CN(S(=O)(=O)c3cccc(C(F)(F)F)c3)C[C@@H]21)NS(C)(=O)=O [Example 515, (3R)-4-methyl-3-[(methylsulfonyl)amino]-N-((3aR,4S,6aS)-2-{[3-(trifluoromethyl)phenyl]sulfonyl}octahydrocyclopenta[c]pyrrol-4-yl)pentanamide] | 3170
CC(C)C[C@H](NS(C)(=O)=O)C(=O)N[C@H]1CC[C@@H]2CN(Cc3cccc(C(F)(F)F)c3)C[C@@H]21 [Example 516, N^2-(methylsulfonyl)-N^1-{(3aR,4S,6aS)-2-[3-(trifluoromethyl)benzyl]octahydrocyclopenta[c]pyrrol-4-yl}-L-leucinamide] | 2990
CC(C)C[C@@H](NS(C)(=O)=O)C(=O)N[C@H]1CC[C@@H]2CN(Cc3cccc(C(F)(F)F)c3)C[C@@H]21 [Example 517, N^2-(methylsulfonyl)-N^1-{(3aR,4S,6aS)-2-[3-(trifluoromethyl)benzyl]octahydrocyclopenta[c]pyrrol-4-yl}-D-leucinamide] | 4450
CCN([C@@H](CC(C)C)C(=O)N[C@H]1CC[C@@H]2CN(Cc3cccc(C(F)(F)F)c3)C[C@@H]21)S(C)(=O)=O [Example 518, N^2-ethyl-N^2-(methylsulfonyl)-N^1-{(3aR,4S,6aS)-2-[3-(trifluoromethyl)benzyl]octahydrocyclopenta[c]pyrrol-4-yl}-L-leucinamide] | 810
CC(C)(C)C[C@H](NS(C)(=O)=O)C(=O)N[C@H]1CC[C@@H]2CN(Cc3ccc(C(F)(F)F)cc3)C[C@@H]21 [Example 519, 4-methyl-N^2-(methylsulfonyl)-N^1-{(3aR,4S,6aS)-2-[4-(trifluoromethyl)benzyl]octahydrocyclopenta[c]pyrrol-4-yl}-L-leucinamide] | 5140
CCC[C@H](NS(C)(=O)=O)C(=O)N[C@H]1CC[C@@H]2CN(Cc3ccc(C(F)(F)F)cc3)C[C@@H]21 [Example 521, N^2-(methylsulfonyl)-N^1-{(3aR,4S,6aS)-2-[4-(trifluoromethyl)benzyl]octahydrocyclopenta[c]pyrrol-4-yl}-L-norvalinamide] | 9600
CC(C)C[C@H](NS(=O)(=O)C(C)C)C(=O)N[C@@H]1CC[C@H]2CN(Cc3cccc(C(F)(F)F)c3)C[C@H]21 [Example 522, N^2-(isopropylsulfonyl)-N^1-{(3aS,4R,6aR)-2-[3-(trifluoromethyl)benzyl]octahydrocyclopenta[c]pyrrol-4-yl}-L-leucinamide] | 2900
CC(C)C[C@H](NS(=O)(=O)C1CCCC1)C(=O)N[C@@H]1CC[C@H]2CN(Cc3cccc(C(F)(F)F)c3)C[C@H]21 [Example 524, N^2-(cyclopentylsulfonyl)-N^1-{(3aS,4R,6aR)-2-[3-(trifluoromethyl)benzyl]octahydrocyclopenta[c]pyrrol-4-yl}-L-leucinamide] | 2070
CC(C)OC(=O)N[C@@H](CC(C)(C)C)C(=O)N[C@H]1CC[C@@H]2CN(Cc3ccc(C(F)(F)F)cc3)C[C@@H]21 [Example 525, Isopropyl (S)-4,4-dimethyl-1-oxo-1-((3aR,4S,6aS)-2-(4-(trifluoromethyl)benzyl)octahydrocyclopenta[c]pyrrol-4-ylamino)pentan-2-ylcarbamate] | 1390
CC(C)OC(=O)N[C@H](C(=O)N[C@H]1CC[C@@H]2CN(Cc3ccc(C(F)(F)F)cc3)C[C@@H]21)C(C)(C)C [Example 526, Isopropyl (S)-3,3-dimethyl-1-oxo-1-((3aR,4S,6aS)-2-(4-(trifluoromethyl)benzyl)octahydrocyclopenta[c]pyrrol-4-ylamino)butan-2-ylcarbamate] | 2770
CCC[C@H](NC(=O)OC1CCCC1)C(=O)N[C@H]1CC[C@@H]2CN(Cc3ccc(C(F)(F)F)cc3)C[C@@H]21 [Example 527, Cyclopentyl (S)-1-oxo-1-((3aR,4S,6aS)-2-(4-(trifluoromethyl)benzyl)octahydrocyclopenta[c]pyrrol-4-ylamino)pentan-2-ylcarbamate] | 2290
CCC[C@H](NC(=O)C(C)(C)C)C(=O)N[C@H]1CC[C@@H]2CN(Cc3ccc(C(F)(F)F)cc3)C[C@@H]21 [Example 528, N^2-(2,2-dimethylpropanoyl)-N^1-{(3aR,4S,6aS)-2-[4-(trifluoromethyl)benzyl]octahydrocyclopenta[c]pyrrol-4-yl}-L-norvalinamide] | 7230
